Data on 25 compounds can be found in PubChem BioAssay (NCI).

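Assay format: 96-well plates, 48-hour exposure. The concentration for 50% growth inhibition is given as GI50. TGI denotes the concentration required for complete inhibition of growth.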 Some results are limits rather than exact numbers.

Test in all cases: NCI-60 cell line screen, 48 h
Assay [1] deals with COLO 205 colon.
Assay [2] deals with EKVX NSCLC.
The test system of assay [3] is HCC-2998 colon.
In assay [4] the test system is MDA-MB-231 breast.
Assay [5] concerns MOLT-4 leukemia.
The test system of assay [6] is NCI-H460 lung.
The subject of assay [7] is PC-3 prostate.
Assay [8] has as its system RXF 393 renal.
Assay [9] deals with SK-OV-3 ovarian.
The subject of assay [10] is U251 CNS.

On to `CCNC1=C(NC(=O)CC)C(=O)c2ccccc2C1=O`, for which the TGI in [1], in assay [2], in [3], in assay [4], in assay [5] and in assay [6] was over 100 µM in each case. The TGI in assay [7], in assay [8], in assay [9] and in assay [10] was over 100 µM throughout.

As for `CCC(c1c[nH]c2ccc(Br)cc12)c1c[nH]c2ccc(Br)cc12`, the TGI stood at 6.09 µM in [1]; 17.2 µM in assay [2]; 5.73 µM in assay [3]; 25.4 µM in assay [4]; 4.56 µM in [5]; 6.82 µM in assay [6]. For the same compound, the TGI in [7] amounted to 17.1 µM; in [8] it was 7.21 µM; in [9], 24.1 µM; in [10], 13.3 µM.

Consider `C=CCOC(=O)C1C2OC3(C(C(=O)OC)=C2C(=O)OC)c2ccccc2CCC13` (centres undefined), for which the TGI in [1], in assay [2], in assay [3], in [4], in [5] and in assay [6] was over 10 µM in each case. Besides, the TGI in assay [7], in assay [8], in assay [9] and in assay [10] was over 10 µM throughout.

Turning to `O[C@H]1[C@H](O)[C@@H](O)[C@@]2(O)C[C@@H](O)[C@@H]1N2`, the TGI in [1], in [2], in assay [3], in [4], in assay [5] and in assay [6] was over 100 µM each time. For the same compound, the TGI in assay [7], in [8], in assay [9] and in assay [10] was over 100 µM in each case.

As to `COc1ccc(/C=C2\CN(C)C/C(=C\c3ccc(OC)c(OC)c3OC)C2=O)c(OC)c1OC`, the TGI in assay [1] came to 0.287 µM; in assay [2], 4.37 µM; in assay [3], 0.335 µM; in [4], 0.488 µM; in [5], 0.0574 µM; in assay [6], 0.435 µM. For the same compound, the TGI in assay [7] was determined as 1.43 µM; in assay [8] it was 0.342 µM; in assay [9], 1.89 µM; in assay [10] it was 0.177 µM.

Consider `CCN(c1cccc(NC(=S)Nc2ccccc2N(CC)c2cc(-c3ccccc3)no2)c1)c1cc(-c2ccccc2)no1`, for which the TGI in assay [1], in [2], in assay [3], in assay [4], in assay [5] and in assay [6] was over 100 µM each time. Further, the TGI in assay [7], in assay [8], in [9] and in [10] was over 100 µM in each case.

In the case of `COc1nc(N)c(N=CC(OC(C)=O)C(OC(C)=O)C(COC(C)=O)OC(C)=O)c(=O)n1C` (centres undefined), the TGI in assay [1], in [2], in [3], in [4], in assay [5] and in assay [6] was over 100 µM throughout. The TGI in [7], in [8], in [9] and in assay [10] was over 100 µM throughout.

Take `Cc1ccc(/C(O)=C/C(=O)C(=O)NN=C(c2ccccc2)c2ccccc2)cc1`: the TGI in assay [1], in assay [2], in assay [3], in assay [4], in assay [5] and in assay [6] was over 100 µM in each case. Further, the TGI in [7], in [8], in assay [9] and in [10] was over 100 µM throughout.

In the case of `CSCCC(NC(=O)Cc1ccc(C(=O)c2ccccc2)cc1)C(=O)O` (centres undefined), the TGI in [1], in [2], in assay [3], in assay [4], in assay [5] and in assay [6] was over 100 µM throughout. The TGI in assay [7], in assay [8], in assay [9] and in [10] was over 100 µM in each case.

With `c1ccc(CSCCc2ccncc2)cc1`, the TGI in [1], in assay [2], in assay [3], in assay [4], in assay [5] and in assay [6] was over 100 µM each time. The TGI in assay [7], in assay [8], in assay [9] and in assay [10] was over 100 µM throughout.

Consider `CCOc1cc(NC(C)=O)ccc1C(=O)NN1C(=O)C(Cl)C1c1ccco1` (centres undefined), for which the TGI in assay [1] was 38.3 µM; in assay [2] it was 36.2 µM; in assay [3], 29.5 µM; in assay [4], 31.1 µM; in assay [5], 29.8 µM; in assay [6], 35.1 µM. In addition, the TGI in assay [7] stood at 32.3 µM; in assay [8], 29 µM; in [9] it was 38.2 µM.

For `COc1ccc(N=C2C(=Nc3ccc(OC)cc3)N(c3ccccc3)C(=S)N2N=C=C2Sc3ccccc3N2C)cc1`, the TGI in assay [1], in [2], in assay [3], in [4], in assay [5] and in assay [6] was over 100 µM throughout. Besides, the TGI in assay [7], in assay [8], in assay [9] and in assay [10] was over 100 µM each time.

Regarding `CC1OC(O[C@H]2/C=C/C=C/C=C/C=C/C=C/C=C/C=C/[C@H](C)[C@@H](O)[C@@H](C)[C@H](C)OC(=O)CC(O)CC(O)CCC(O)C(O)CC(O)C[C@]3(O)C[C@H](O)C(C(=O)O)C(C2)O3)C(O)[C@H](N)C1O` (some centres undefined), the GI50 is 4.19 µM in assay [1]; 3.4 µM in assay [2]; 5.36 µM in assay [3]; 4.24 µM in assay [4]; 2900 nM in assay [5]; 2140 nM in assay [6]. The results for the GI50 in assay [7], in [8] and in [10] were 1810 nM, 1840 nM and 1880 nM, respectively. Further, the TGI was found to be 17.2 µM in assay [1]; 11 µM in [2]; 18.7 µM in assay [3]; 15.7 µM in assay [4]; 6.02 µM in assay [5]; 4.84 µM in assay [6]. In addition, the TGI is 3.92 µM in assay [7], 3.95 µM in [8] and 3.79 µM in assay [10].

Consider `COc1cccc(N2C(=O)C3c4[nH]c5ccc(C)cc5c4C4CCC(C(C)(C)C)CC4C3C2=O)c1` (centres undefined), for which the TGI in [1] is over 10 µM; in [2] it was over 10 µM; in assay [3], over 10 µM; in [4], over 10 µM; in assay [5], 5.04 µM; in assay [6] it was 4.43 µM. Besides, the TGI was over 10 µM in [7], 9.94 µM in assay [8], over 10 µM in assay [9] and over 10 µM in assay [10].

For `Cc1ccc(/C=C2\CCCC(CN3CCCCC3)C2=O)cc1` (centres undefined), the TGI is 3.25 µM in [1]; 32.7 µM in [2]; 28.9 µM in assay [3]; 3.34 µM in assay [4]; over 100 µM in [5]; 15.9 µM in assay [6]. The TGI in assay [7] stood at 5.74 µM; in assay [8], 3.15 µM; in [9] it was 30.1 µM; in assay [10] it was 27.3 µM.

For `COC(=O)C1=C(OC(=O)c2ccccc2)C(C(=O)OC)[C@]2(O)[C@@H](C(=O)OC)[C@H]1C[C@@H](c1ccccc1)[C@@H]2C(=O)OC` (some centres undefined), the TGI in assay [1] is 21.8 µM; in [2], over 100 µM; in [3], 25 µM; in [4], 41.4 µM; in [5], 23 µM; in assay [6] it was 42.4 µM. Further, the TGI was 23.7 µM in assay [7], 19.8 µM in [8], 48.3 µM in assay [9] and 20.8 µM in [10].

Turning to `CCOC(=O)CSc1nnc(C(Sc2nc(-c3ccccc3)c(-c3ccccc3)[nH]2)C(C)C)n1-c1ccccc1` (centres undefined), the TGI in assay [1] is 28.6 µM; in assay [2], over 31.6 µM; in assay [3], 43.5 µM; in assay [4], 64.1 µM; in [5] it was 50 µM; in assay [6], over 31.6 µM. Further, the TGI was over 100 µM in [7], 67.1 µM in [8], over 10 µM in assay [9] and over 10 µM in assay [10].

Take `Cc1cc(O)c(C(C)C)cc1C1(c2cc(C(C)C)c(O)cc2C)OC(=O)c2ccccc21`: the TGI is 4.96 µM in assay [1]; 9.25 µM in [2]; 3.48 µM in [3]; 4.54 µM in assay [4]; 3.38 µM in assay [5]; 3.99 µM in assay [6]. Besides, the TGI in assay [7] was 4.95 µM; in assay [8], 3.02 µM; in assay [9], over 33.3 µM; in [10], 3.9 µM.

On to `C[C@H]1C=C2[C@@H]3CC(C)(C(=O)O)CC[C@]3(C)CC[C@]2(C)[C@]2(C)CC[C@H]3C(C)(C)[C@@H](OC(=O)c4cccc5c(=O)c6ccccc6[nH]c45)CC[C@]3(C)[C@@H]12` (some centres undefined), for which the TGI in assay [1], in assay [2], in assay [3], in assay [4], in assay [5] and in [6] was over 100 µM each time. In addition, the TGI in [7], in assay [8], in assay [9] and in assay [10] was over 100 µM in each case.

In the case of `CC(C)[C@@H]1ON1C(C)c1ccccc1` (some centres undefined), the TGI in assay [1], in assay [2], in assay [3], in assay [4], in [5] and in assay [6] was over 100 µM each time. In addition, the TGI in assay [7], in assay [8], in [9] and in [10] was over 100 µM throughout.

Regarding `COC(=O)c1c(O)ccc2c1C1(Cc3ccccc3C1=O)C(O)O2` (centres undefined), the TGI in assay [1] is over 100 µM; in [2], 68.5 µM; in assay [3], 69.9 µM; in assay [4], 52.1 µM; in assay [5], 21.5 µM; in assay [6] it was over 100 µM. Besides, the TGI is 92.2 µM in assay [7], over 100 µM in assay [8], 57.8 µM in [9] and 61.4 µM in assay [10].

Regarding `OC(c1ccc(-c2ccccc2)cc1)C(F)(F)c1nc2ccccc2o1` (centres undefined), the TGI in assay [1] is over 100 µM; in assay [2] it was over 100 µM; in assay [3], over 100 µM; in assay [4], over 96.6 µM; in [5] it was over 100 µM; in [6], over 100 µM. Further, the TGI in assay [7] was over 100 µM; in assay [8], 49.5 µM; in [9], over 100 µM; in assay [10] it was over 100 µM.

Take `CC(=O)OCC1OC(n2c(=O)[nH]c(=O)c3sccc32)C(Br)C1OC(C)=O` (centres undefined): the TGI in [1], in assay [2], in [3], in assay [4], in assay [5] and in assay [6] was over 100 µM throughout. The TGI in assay [7], in [8] and in [10] was over 100 µM each time.

In the case of `COc1cc([C@@H]2c3cc(O)c(OC)cc3C=C(C(N)=O)[C@H]2C(N)=O)ccc1O`, the TGI in assay [1], in assay [2], in assay [3], in [4], in assay [5] and in assay [6] was over 100 µM throughout. In addition, the TGI in assay [7], in [8] and in assay [10] was over 100 µM throughout.

For `CCC[C@H](C)C[C@H](C)C[C@H](C)/C=C(\C)[C@@H](O)[C@@H](C)C(=O)CC`, the TGI in assay [2] came out at 34.7 µM; in assay [3], 31.2 µM; in assay [4], 44.6 µM; in assay [5], 43.3 µM; in assay [6] it was 53.4 µM; in assay [7] it was 37.2 µM. Besides, the TGI in [8] was 40 µM; in assay [9], over 100 µM; in assay [10], 44.7 µM.
